# Test results from PubChem BioAssay (NCI).
#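 Cultured in 96-well plates, cells were exposed to test compound for 48 hours across five concentrations. TGI marks complete inhibition of growth.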
# Assays:
# Experiment in all cases: DTP human tumour cell line panel, 48 h
# K-562 leukemia = system: K-562 leukemia
# RXF 393 renal = system: RXF 393 renal
# KM20L2 colon = system: KM20L2 colon
# SF-268 CNS = system: SF-268 CNS
# RPMI-8226 leukemia = system: RPMI-8226 leukemia
# ACHN renal = system: ACHN renal
# SK-MEL-2 melanoma = system: SK-MEL-2 melanoma
# OVCAR-8 ovarian = system: OVCAR-8 ovarian
# NCI-H226 lung = system: NCI-H226 lung
# LXFL 529 NSCLC = system: LXFL 529 NSCLC
# A498 renal = system: A498 renal
# HCT-116 colon = system: HCT-116 colon
# CCRF-CEM leukemia = system: CCRF-CEM leukemia
# SK-OV-3 ovarian = system: SK-OV-3 ovarian
# HL-60(TB) leukemia = system: HL-60(TB) leukemia
# DMS 114 small cell lung = system: DMS 114 small cell lung
# SNB-19 CNS = system: SNB-19 CNS
# HCC-2998 colon = system: HCC-2998 colon
# DLD-1 colon = system: DLD-1 colon
# 786-0 renal = system: 786-0 renal
# TK-10 renal = system: TK-10 renal
# KM12 colon = system: KM12 colon
# HCT-15 colon = system: HCT-15 colon
# COLO 205 colon = system: COLO 205 colon
# UO-31 renal = system: UO-31 renal
# SN12C renal = system: SN12C renal
# EKVX NSCLC = system: EKVX NSCLC
# SF-295 CNS = system: SF-295 CNS
# NCI-H23 lung = system: NCI-H23 lung
# XF 498 CNS = system: XF 498 CNS
# SR leukemia = system: SR leukemia
# IGROV1 ovarian = system: IGROV1 ovarian
# HOP-92 NSCLC = system: HOP-92 NSCLC
# MOLT-4 leukemia = system: MOLT-4 leukemia
# A549 NSCLC = system: A549 NSCLC
# SF-539 CNS = system: SF-539 CNS
# HOP-62 NSCLC = system: HOP-62 NSCLC
# HOP-18 NSCLC = system: HOP-18 NSCLC
# HT29 colon = system: HT29 colon
# M14 melanoma = system: M14 melanoma
# UACC-62 melanoma = system: UACC-62 melanoma
# UACC-257 melanoma = system: UACC-257 melanoma
# SNB-78 CNS = system: SNB-78 CNS
# SW-620 colon = system: SW-620 colon
# OVCAR-3 ovarian = system: OVCAR-3 ovarian
# DMS 273 small cell lung = system: DMS 273 small cell lung
# M19-MEL melanoma = system: M19-MEL melanoma
# OVCAR-4 ovarian = system: OVCAR-4 ovarian
# NCI-H460 lung = system: NCI-H460 lung
# U251 CNS = system: U251 CNS
# LOX IMVI melanoma = system: LOX IMVI melanoma
# NCI-H522 lung = system: NCI-H522 lung
# SK-MEL-28 melanoma = system: SK-MEL-28 melanoma
# MALME-3M melanoma = system: MALME-3M melanoma
# SNB-75 CNS = system: SNB-75 CNS
# OVCAR-5 ovarian = system: OVCAR-5 ovarian
# CAKI-1 renal = system: CAKI-1 renal
# SK-MEL-5 melanoma = system: SK-MEL-5 melanoma
smiles,measurement,setting,value
CCN1C(=O)N(C)C(O)c2c1nc1ccccn1c2=O (centres undefined),TGI,K-562 leukemia,> 100 µM
same,TGI,RXF 393 renal,59 µM
same,TGI,KM20L2 colon,59.8 µM
same,TGI,SF-268 CNS,68.8 µM
same,TGI,RPMI-8226 leukemia,78.6 µM
same,TGI,ACHN renal,> 100 µM
same,TGI,SK-MEL-2 melanoma,62.8 µM
same,TGI,OVCAR-8 ovarian,46.4 µM
same,TGI,NCI-H226 lung,> 100 µM
same,TGI,LXFL 529 NSCLC,> 100 µM
same,TGI,A498 renal,66.2 µM
same,TGI,HCT-116 colon,84.1 µM
same,TGI,CCRF-CEM leukemia,95.5 µM
same,TGI,SK-OV-3 ovarian,59.4 µM
same,TGI,HL-60(TB) leukemia,90.7 µM
same,TGI,DMS 114 small cell lung,> 100 µM
same,TGI,SNB-19 CNS,> 100 µM
same,TGI,HCC-2998 colon,43.6 µM
same,TGI,DLD-1 colon,> 100 µM
same,TGI,786-0 renal,98.4 µM
same,TGI,TK-10 renal,60.4 µM
same,TGI,KM12 colon,> 100 µM
same,TGI,HCT-15 colon,> 100 µM
same,TGI,COLO 205 colon,37.6 µM
same,TGI,UO-31 renal,> 100 µM
same,TGI,SN12C renal,64 µM
same,TGI,EKVX NSCLC,53 µM
same,TGI,SF-295 CNS,> 100 µM
same,TGI,NCI-H23 lung,63.6 µM
same,TGI,XF 498 CNS,83.4 µM
same,TGI,SR leukemia,> 100 µM
same,TGI,IGROV1 ovarian,> 100 µM
same,TGI,HOP-92 NSCLC,62.5 µM
same,TGI,MOLT-4 leukemia,> 100 µM
same,TGI,A549 NSCLC,98.6 µM
same,TGI,SF-539 CNS,54.3 µM
same,TGI,HOP-62 NSCLC,98.6 µM
same,TGI,HOP-18 NSCLC,65.3 µM
same,TGI,HT29 colon,70.7 µM
same,TGI,M14 melanoma,> 100 µM
same,TGI,UACC-62 melanoma,1.98 µM
same,TGI,UACC-257 melanoma,> 100 µM
same,TGI,SNB-78 CNS,82.5 µM
same,TGI,SW-620 colon,> 100 µM
same,TGI,OVCAR-3 ovarian,63.9 µM
same,TGI,DMS 273 small cell lung,42.4 µM
same,TGI,M19-MEL melanoma,83.6 µM
same,TGI,OVCAR-4 ovarian,> 100 µM
same,TGI,NCI-H460 lung,42.8 µM
same,TGI,U251 CNS,> 100 µM
same,TGI,LOX IMVI melanoma,33.2 µM
same,TGI,NCI-H522 lung,65.6 µM
same,TGI,SK-MEL-28 melanoma,77.6 µM
same,TGI,MALME-3M melanoma,> 100 µM
same,TGI,SNB-75 CNS,56.7 µM
Cc1cc(NS(=O)(=O)c2ccc(Nc3c4ccccc4nc4c(C(=O)Nc5ccc(S(N)(=O)=O)cc5)cccc34)cc2)no1,TGI,K-562 leukemia,> 100 µM
same,TGI,RXF 393 renal,> 100 µM
same,TGI,KM20L2 colon,> 100 µM
same,TGI,SF-268 CNS,> 100 µM
same,TGI,RPMI-8226 leukemia,> 100 µM
same,TGI,ACHN renal,> 100 µM
same,TGI,SK-MEL-2 melanoma,69.3 µM
same,TGI,OVCAR-8 ovarian,> 100 µM
same,TGI,LXFL 529 NSCLC,44.8 µM
same,TGI,A498 renal,> 100 µM
same,TGI,HCT-116 colon,> 100 µM
same,TGI,CCRF-CEM leukemia,79.9 µM
same,TGI,SK-OV-3 ovarian,> 100 µM
same,TGI,DMS 114 small cell lung,77.3 µM
same,TGI,SNB-19 CNS,84.9 µM
same,TGI,OVCAR-5 ovarian,> 100 µM
same,TGI,DLD-1 colon,> 100 µM
same,TGI,786-0 renal,> 100 µM
same,TGI,TK-10 renal,> 100 µM
same,TGI,KM12 colon,50.6 µM
same,TGI,HCT-15 colon,> 100 µM
same,TGI,COLO 205 colon,> 100 µM
same,TGI,UO-31 renal,> 100 µM
same,TGI,CAKI-1 renal,> 100 µM
same,TGI,SN12C renal,> 100 µM
same,TGI,EKVX NSCLC,> 100 µM
same,TGI,SF-295 CNS,> 100 µM
same,TGI,NCI-H23 lung,> 100 µM
same,TGI,XF 498 CNS,57.9 µM
same,TGI,IGROV1 ovarian,> 100 µM
same,TGI,HOP-92 NSCLC,81.6 µM
same,TGI,MOLT-4 leukemia,78.9 µM
same,TGI,A549 NSCLC,> 100 µM
same,TGI,SF-539 CNS,61.2 µM
same,TGI,HOP-62 NSCLC,> 100 µM
same,TGI,HOP-18 NSCLC,> 100 µM
same,TGI,HT29 colon,> 100 µM
same,TGI,M14 melanoma,> 100 µM
same,TGI,UACC-62 melanoma,55.8 µM
same,TGI,UACC-257 melanoma,> 100 µM
same,TGI,SNB-78 CNS,60 µM
same,TGI,SW-620 colon,> 100 µM
same,TGI,SK-MEL-5 melanoma,> 100 µM
same,TGI,OVCAR-3 ovarian,31.7 µM
same,TGI,DMS 273 small cell lung,> 100 µM
same,TGI,M19-MEL melanoma,64.8 µM
same,TGI,OVCAR-4 ovarian,51.1 µM
same,TGI,NCI-H460 lung,> 100 µM
same,TGI,U251 CNS,57.4 µM
same,TGI,LOX IMVI melanoma,> 100 µM
same,TGI,NCI-H522 lung,54.1 µM
same,TGI,SK-MEL-28 melanoma,83.9 µM
same,TGI,MALME-3M melanoma,53.1 µM
same,TGI,SNB-75 CNS,> 100 µM
